According to US11566007B2, “Ras inhibitors” (Revolution Medicines, Inc., priority 2019, dated 2023):
Read-outs that look alike come from different tables or passages of the source.

Columns and labels:
KRAS G12D = KRAS G12D (Homo sapiens (Human), UniProt P01116+P62937, G12D); test: Ras-Raf (BRAF RBD) disruption / FRET / MOA assay, KRAS G12D; type: biochemical; conditions: Ras-Raf disruption/FRET/MOA assay; class symbols; read-out: KRAS G12D FRET data IC50
Summary of the method: (§1)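 A 10-point, 3-fold dilution series topping at 30 μM final was incubated 3 h at 25° C with the Ras/cyclophilin A/BRAF RBD mixture.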

K-Ras G12C = K-Ras G12C (Homo sapiens (Human), UniProt P01116+P62937, G12C); test: Ras-Raf (BRAF RBD) disruption / FRET / MOA assay, KRAS G12C; type: biochemical; conditions: KRAS G12C; Ras-Raf disruption/FRET/MOA assay; read-out: IC50* KRAS G12C FRET data
Chain of K-Ras G12C (P01116-2 other isoform, or with tags, fused parts or gaps G12C): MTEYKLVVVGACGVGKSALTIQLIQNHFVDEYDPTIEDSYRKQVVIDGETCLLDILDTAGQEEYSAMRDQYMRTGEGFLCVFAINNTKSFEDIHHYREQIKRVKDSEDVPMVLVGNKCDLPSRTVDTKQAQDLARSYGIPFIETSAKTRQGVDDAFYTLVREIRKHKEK
Chain of K-Ras G12C (P62937 whole entry): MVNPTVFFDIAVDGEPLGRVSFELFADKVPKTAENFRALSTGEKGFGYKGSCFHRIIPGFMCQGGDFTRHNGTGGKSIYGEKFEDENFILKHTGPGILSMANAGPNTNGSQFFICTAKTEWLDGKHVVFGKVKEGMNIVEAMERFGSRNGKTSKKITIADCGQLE
Summary of the method: as §1

NRAS Q61R = NRAS Q61R (Homo sapiens (Human), UniProt P01111+P62937, Q61R); test: Ras-Raf (BRAF RBD) disruption / FRET / MOA assay, NRAS Q61R; type: biochemical; conditions: NRAS Q61R; Ras-Raf disruption/FRET/MOA assay; read-out: IC50* NRAS Q61R FRET data
Chain of NRAS Q61R (P01111 whole entry Q61R): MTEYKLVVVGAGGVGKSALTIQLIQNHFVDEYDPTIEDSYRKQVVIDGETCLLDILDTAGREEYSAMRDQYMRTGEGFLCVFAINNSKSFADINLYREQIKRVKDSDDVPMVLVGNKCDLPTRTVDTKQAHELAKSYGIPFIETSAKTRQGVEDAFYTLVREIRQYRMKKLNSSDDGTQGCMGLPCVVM
Chain of NRAS Q61R (P62937 whole entry): as the sequence (P62937 whole entry) above
Summary of the method: (§2)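 Compounds (30 μM top final, 10-point 3-fold dilutions) incubated 3 h at 25° C with nucleotide-loaded Ras, cyclophilin A and BRAF RBD. Detection with 10 nM anti-His Eu-W1024 and 50 nM anti-GST allophycocyanin over another 1.5 h. Lowered TR-FRET ratio relative to DMSO wells gives IC50.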

KRAS G12S = KRAS G12S (Homo sapiens (Human), UniProt P01116+P62937, G12S); test: Ras-Raf (BRAF RBD) disruption / FRET / MOA assay, KRAS G12S; type: biochemical; conditions: Ras-Raf disruption/FRET/MOA assay; class symbols; read-out: KRAS G12S FRET data IC50
Chain of KRAS G12S (P01116-2 other isoform, or with tags, fused parts or gaps G12S): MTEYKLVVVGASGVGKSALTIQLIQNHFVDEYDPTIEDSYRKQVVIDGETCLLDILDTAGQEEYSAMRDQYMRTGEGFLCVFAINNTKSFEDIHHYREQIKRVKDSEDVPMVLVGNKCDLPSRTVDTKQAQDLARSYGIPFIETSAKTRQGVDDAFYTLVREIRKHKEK
Chain of KRAS G12S (P62937 whole entry): as the sequence (P62937 whole entry) above
Summary of the method: as §1

NRAS G12C = NRAS G12C (Homo sapiens (Human), UniProt P01111+P62937, G12C); test: Ras-Raf (BRAF RBD) disruption / FRET / MOA assay, NRAS G12C; type: biochemical
Chain of NRAS G12C (P01111 whole entry G12C): as the sequence (P01111 whole entry Q61R) above, with G12C, R61Q counted along it
Chain of NRAS G12C (P62937 whole entry): as the sequence (P62937 whole entry) above
Summary of the method: as §1

NRAS Q61K = NRAS Q61K (Homo sapiens (Human), UniProt P01111+P62937, Q61K); test: Ras-Raf (BRAF RBD) disruption / FRET / MOA assay, NRAS Q61K; type: biochemical; conditions: NRAS Q61K; Ras-Raf disruption/FRET/MOA assay; read-out: IC50* NRAS Q61K FRET data
Chain of NRAS Q61K (P01111 whole entry Q61K): as the sequence (P01111 whole entry Q61R) above, with R61K counted along it
Chain of NRAS Q61K (P62937 whole entry): as the sequence (P62937 whole entry) above
Summary of the method: as §2

NCI-H358 (K-Ras G12C) = test: CellTiter-Glo cell viability assay, NCI-H358; type: cell-based, human; conditions: Homo sapiens, NCI-H358, 120 h, NCI-H358, 5-day treatment; class symbols; read-out: Additional H358 Cell Viability assay data (K-Ras G12C, IC50)
Summary of the method: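 Steps: compound dispensed into wells holding cells; incubation to day 5; ~30 min room-temperature equilibration; luminescence read; sample signal divided by mean DMSO signal, times 100; four-parameter logistic curve fit.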

[1] = read-out: IC50* NRAS G12C FRET data

Chain of KRAS G12D (P01116-2 other isoform, or with tags, fused parts or gaps G12D): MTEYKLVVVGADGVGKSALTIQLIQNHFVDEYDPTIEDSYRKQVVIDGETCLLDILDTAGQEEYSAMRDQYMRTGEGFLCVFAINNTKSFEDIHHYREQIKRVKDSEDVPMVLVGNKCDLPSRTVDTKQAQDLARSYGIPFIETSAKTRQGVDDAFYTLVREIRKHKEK
Chain of KRAS G12D (P62937 whole entry): as the sequence (P62937 whole entry) above

| Structure (SMILES) | IC50 (KRAS G12D) [nM] | IC50 (K-Ras G12C) [nM] | IC50 (NRAS Q61R) [nM] | IC50 (KRAS G12S) [nM] | IC50 (NRAS G12C; [1]) [nM] | IC50 (NRAS Q61K) [nM] | IC50 (NCI-H358 (K-Ras G12C)) [nM] | IC50 (NRAS G12C; IC50* NRAS G12C FRET data) [nM] |
| --- | --- | --- | --- | --- | --- | --- | --- | --- |
| CO[C@@H](C)c1ncccc1-c1c2c3cc(ccc3n1CC(F)(F)F)-c1nc(ns1)C[C@H](NC(=O)[C@@H](COC1CN(C(=O)C#CC(C)(C)N(C)C)C1)C(C)C)C(=O)N1CCC[C@H](N1)C(=O)OCC(C)(C)C2 (atropisomer, axis not shown) [Example A590, (2R)-2-(((1-(4-(dimethylamino)-4-methylpent-2-ynoyl)azetidin-3-yl)oxy)methyl)-N-((6^3S,4S,Z)-1^2-(2-((S)-1-methoxyethyl)pyridin-3-yl)-10,10-dimethyl-5,7-dioxo-1^1-(2,2,2-trifluoroethyl)-6^1,6^2,6^3,6^4,6^5,6^6-hexahydro-1^1H-8-oxa-2(5,3)-thiadiazola-1(5,3)-indola-6(1,3)-pyridazinacycloundecaphane-4-yl)-3-methylbutanamide] | > 10000 | 10 to 100 | > 10000 | 1000 to 10000 | 10 to 100 | 1000 to 10000 | < 10 |  |
| C=CC(=O)N1CCO[C@@]2(CCN(C(=O)N(C)[C@H](C(=O)N[C@H]3Cc4nc(cs4)-c4ccc5c(c4)c(c(-c4cccnc4[C@H](C)OC)n5CC(F)(F)F)CC(C)(C)COC(=O)[C@@H]4CCCN(N4)C3=O)C(C)C)C2)C1 (atropisomer, axis not shown) [Example A594] | 100 to 1000 | 10 to 100 | 10 to 100 | 100 to 1000 |  | 10 to 100 | < 10 | 10 to 100 |
| C=CC(=O)N1CCO[C@H]2CN(C(=O)N(C)[C@H](C(=O)N[C@H]3Cc4cccc(n4)-c4ccc5c(c4)c(c(-c4cccnc4[C@H](C)OC)n5CC(F)(F)F)CC(C)(C)COC(=O)[C@@H]4CCCN(N4)C3=O)C(C)C)C[C@H]21 (atropisomer, axis not shown) [Example A595] | 1000 to 10000 | 10 to 100 | 100 to 1000 | 1000 to 10000 | 10 to 100 | 100 to 1000 | < 10 |  |
| C=CC(=O)N1CCO[C@H]2CN(C(=O)N(C)[C@H](C(=O)N[C@H]3Cc4cccc(n4)-c4ccc5c(c4)c(c(-c4cccnc4[C@H](C)OC)n5CC)CC(C)(C)COC(=O)[C@@H]4CCCN(N4)C3=O)C(C)C)C[C@H]21 (atropisomer, axis not shown) [Example A597] | > 10000 | 10 to 100 | 100 to 1000 | 1000 to 10000 | 10 to 100 | 100 to 1000 | < 10 |  |
| C=CC(=O)N1CCO[C@H]2CN(C(=O)N(C)[C@H](C(=O)N[C@H]3Cc4cccc(c4)-c4ccc5c(c4)c(c(-c4cccnc4[C@H](C)OC)n5CC)CC(C)(C)COC(=O)[C@@H]4CCCN(N4)C3=O)C(C)C)C[C@H]21 (atropisomer, axis not shown) [Example A610] | 1000 to 10000 | 10 to 100 | 100 to 1000 | 1000 to 10000 | 10 to 100 | 100 to 1000 | < 10 |  |
| C=CC(=O)N1CC2(CCN2C(=O)N(C)[C@H](C(=O)N[C@H]2Cc3nc(n(C)n3)-c3ccc4c(c3)c(c(-c3cccnc3[C@H](C)OC)n4CC)CC(C)(C)COC(=O)[C@@H]3CCCN(N3)C2=O)C(C)C)C1 (atropisomer, axis not shown) [Example A612] | 100 to 1000 | 10 to 100 | 10 to 100 | 100 to 1000 | < 10 | 10 to 100 | 100 to 1000 |  |
| CCn1c(-c2cccnc2[C@H](C)OC)c2c3cc(ccc31)N1CCC[C@@H](C[C@H](NC(=O)[C@H](C(C)C)N(C)C(=O)C3(F)CCN(C(=O)C#CC(C)(C)N(C)C)CC3)C(=O)N3CCC[C@H](N3)C(=O)OCC(C)(C)C2)C1 (atropisomer, axis not shown) [Example A615] | > 10000 | 10 to 100 | > 10000 | > 10000 | 10 to 100 | > 10000 | < 10 |  |
| C=CC(=O)N(C)CCC1CCN(C(=O)N(C)[C@H](C(=O)N[C@H]2Cc3nc(cs3)-c3ccc4c(c3)c(c(-c3cccnc3[C@H](C)OC)n4CC)CC(C)(C)COC(=O)[C@@H]3CCCN(N3)C2=O)C(C)C)CC1 (atropisomer, axis not shown) [Example A621] | 100 to 1000 | 10 to 100 | 10 to 100 | 10 to 100 | 10 to 100 | 10 to 100 | < 10 |  |
| CCn1c(-c2cccnc2[C@H](C)OC)c2c3cc(ccc31)-c1csc(n1)C[C@H](NC(=O)[C@H](C(C)C)N(C)C(=O)N1C[C@H]3CN(C(=O)C#CC(C)(C)N(C)C)CC[C@H]31)C(=O)N1CCC[C@H](N1)C(=O)OCC(C)(C)C2 (atropisomer, axis not shown) [Example A624] | 1000 to 10000 | 10 to 100 | 100 to 1000 | 100 to 1000 | 10 to 100 | 100 to 1000 | < 10 |  |
| CCn1c(-c2cccnc2[C@H](C)OC)c2c3cc(ccc31)-c1csc(n1)C[C@H](NC(=O)[C@H](F)COC1CN(C(=O)C#CC(C)(C)N(C)C)C1)C(=O)N1CCC[C@H](N1)C(=O)OCC(C)(C)C2 (atropisomer, axis not shown) [Example A627] | > 10000 | < 10 | > 10000 | > 10000 | < 10 | > 10000 | < 10 |  |
| C=C(C)C(=O)N1CC2(CCN(C(=O)N(C)[C@H](C(=O)N[C@H]3Cc4nc(cs4)-c4ccc5c(c4)c(c(-c4cccnc4[C@H](C)OC)n5CC)CC(C)(C)COC(=O)[C@@H]4CCCN(N4)C3=O)C(C)C)CC2)C1 (atropisomer, axis not shown) [Example A651] | 100 to 1000 | 10 to 100 | 100 to 1000 | 100 to 1000 | 10 to 100 | 10 to 100 | 10 to 100 |  |
| C=CC(=O)N(C)C[C@H]1CCN(C(=O)N(C)[C@H](C(=O)N[C@H]2Cc3nc(cs3)-c3ccc4c(c3)c(c(-c3cccnc3[C@H](C)OC)n4CC)CC(C)(C)COC(=O)[C@@H]3CCCN(N3)C2=O)C(C)C)C1 (atropisomer, axis not shown) [Example A653] | 100 to 1000 | 10 to 100 | 100 to 1000 | 100 to 1000 | 10 to 100 | 10 to 100 | 10 to 100 |  |
| C=CC(=O)N(C)C[C@@H]1CCN(C(=O)N(C)[C@H](C(=O)N[C@H]2Cc3nc(cs3)-c3ccc4c(c3)c(c(-c3cccnc3[C@H](C)OC)n4CC)CC(C)(C)COC(=O)[C@@H]3CCCN(N3)C2=O)C(C)C)C1 (atropisomer, axis not shown) [Example A654] | 100 to 1000 | 100 to 1000 | 100 to 1000 | 100 to 1000 | 10 to 100 | 10 to 100 | 10 to 100 |  |
| CCn1c(-c2cccnc2[C@H](C)OC)c2c3cc(ccc31)-c1cccc(c1)C[C@H](NC(=O)[C@@H](COC1CN(C(=O)C#CC(C)(C)N(C)CCO)C1)C(C)C)C(=O)N1CCC[C@H](N1)C(=O)OCC(C)(C)C2 (atropisomer, axis not shown) [Example A657] | > 10000 | 10 to 100 | > 10000 | > 10000 | 10 to 100 | > 10000 | < 10 |  |
